Target: T1, human GPR40 (Homo sapiens, UniProt O14842)
T1 construct: expressed in transfected cells; host or cells: CHO-K1
Experiment: Induction of Ca2+ (calcium flux assay) using human GPR40 expression cell line
Format: cell-based
Conditions: read-out: EC0.5
Method in brief: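 Read-out is intracellular Ca2+ flux on FlexStation after test compounds (DMSO stocks diluted 200-fold in assay buffer) were added to dye-loaded human GPR40/CHO-K1 cells. Cells had been cultured 24 h, then incubated 1 h at 37° C with Calcium 5 dye, HBSS-HEPES pH 7.4; EC0.5 from concentration plot.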

T1 sequence (O14842 whole entry): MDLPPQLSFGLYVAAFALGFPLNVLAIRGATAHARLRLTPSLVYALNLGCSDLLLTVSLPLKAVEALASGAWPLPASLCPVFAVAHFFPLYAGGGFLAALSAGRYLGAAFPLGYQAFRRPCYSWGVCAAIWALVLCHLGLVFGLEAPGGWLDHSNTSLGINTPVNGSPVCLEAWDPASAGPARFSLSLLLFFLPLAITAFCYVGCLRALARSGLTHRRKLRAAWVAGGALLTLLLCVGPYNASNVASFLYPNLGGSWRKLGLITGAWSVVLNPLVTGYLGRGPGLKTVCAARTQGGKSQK

| Structure (SMILES) | EC50 [nM] |
| --- | --- |
| O=C(O)CC1CCOc2cc(OCc3ccc4c(cnn4Cc4cccnc4)c3)ccc21 (stereo not shown) [Example 148, [7-(1-pyridin-3-ylmethyl-1H-indazol-5-ylmethoxy)-chroman-4-yl]-acetic acid] | ≥ 500 |
| CCOCCn1ncc2cc(COc3ccc4c(c3)OCCC4CC(=O)O)ccc21 (stereo not shown) [Example 149, {7-[1-(2-ethoxy-ethyl)-1H-indazol-5-ylmethoxy]-chroman-4-yl}-acetic acid] | ≥ 500 |
| CC#C[C@@H](CC(=O)O)c1ccc(OCc2cc3c(cnn3CC(C)C)cc2F)cc1 [Example 150, (S)-3-[4-(5-fluoro-1-isobutyl-1H-indazol-6-ylmethoxy)-phenyl]-hex-4-ynoic acid] | 3 |
| CC#C[C@@H](CC(=O)O)c1ccc(OCc2ccc3c(cnn3CC3CCCO3)c2)cc1 (stereo partly drawn) [Example 151, (S)-3-{4-[1-(tetrahydrofuran-2-ylmethyl)-1H-indazol-5-ylmethoxy]-phenyl}-hex-4-ynoic acid] | 1 to 50 |
| CC#C[C@@H](CC(=O)O)c1ccc(OCc2ccc3c(cnn3CCCS(C)(=O)=O)c2)cc1 [Example 152, (S)-3-{4-[1-(3-methanesulfonyl-propyl)-1H-indazol-5-ylmethoxy]-phenyl}-hex-4-ynoic acid] | ≥ 500 |
| CC#C[C@@H](CC(=O)O)c1ccc(OCc2ccc3c(cnn3CC3CCOC3)c2)cc1 (stereo partly drawn) [Example 153, (S)-3-{4-[1-(tetrahydrofuran-3-ylmethyl)-1H-indazol-5-ylmethoxy]-phenyl}-hex-4-ynoic acid] | 1 to 50 |
| CC#C[C@@H](CC(=O)O)c1ccc(OCc2ccc3nn(CC4CCOC4)cc3c2)cc1 (stereo partly drawn) [Example 154, (S)-3-{4-[2-(tetrahydrofuran-3-ylmethyl)-2H-indazol-5-ylmethoxy]-phenyl}-hex-4-ynoic acid] | ≥ 500 |
| COC(CC(=O)O)c1ccc(OCc2ccc3c(cnn3Cc3ccccc3)c2)cc1 (stereo not shown) [Example 155, 3-[4-(1-benzyl-1H-indazol-5-ylmethoxy)-phenyl]-3-methoxy-propanoic acid] | 50 to 500 |
| CC#C[C@@H](CC(=O)O)c1ccc(OCc2cnc3c(cnn3CC(C)C)c2)cc1 [Example 156, (S)-3-[4-(1-isobutyl-1H-pyrazolo[3,4-b]pyridin-5-ylmethoxy)-phenyl]-hex-4-ynoic acid] | 20 |
| CC#C[C@@H](CC(=O)O)c1ccc(OCc2ccc3c(cnn3CCOCC)c2)cc1 [Example 157, (S)-3-{4-[1-(2-ethoxy-ethyl)-1H-indazol-5-ylmethoxy]-phenyl}-hex-4-ynoic acid] | 1 to 50 |
| CC(CC(=O)O)c1ccc(OCc2ccc3c(cnn3Cc3ccccc3)c2)cc1 (stereo not shown) [Example 158, 3-[4-(1-benzyl-1H-indazol-5-ylmethoxy)-phenyl]-butyric acid] | 50 |
| CCC(CC(=O)O)c1ccc(OCc2ccc3c(cnn3Cc3ccccc3)c2)cc1 (stereo not shown) [Example 159, 3-[4-(1-benzyl-1H-indazol-5-ylmethoxy)-phenyl]-pentanoic acid] | 100 |
| CC#C[C@@H](CC(=O)O)c1ccc(OCc2ccc3nn(CCOCC)cc3c2)cc1 [Example 160, (S)-3-{4-[2-(2-ethoxy-ethyl)-2H-indazol-5-ylmethoxy]-phenyl}-hex-4-ynoic acid] | 50 to 500 |
| CC#C[C@@H](CC(=O)O)c1ccc(OCc2ccc3c(c2)n(C)c(=O)n3Cc2ccccc2)cc1 [Example 161, (S)-3-[4-(1-benzyl-3-methyl-2-oxo-2,3-dihydro-1H-benzoimidazol-5-ylmethoxy)-phenyl]-hex-4-ynoic acid] | 5 |
| N#CC(CC(=O)O)c1ccc(OCc2ccc3c(cnn3Cc3ccccc3)c2)cc1 (stereo not shown) [Example 162, 3-[4-(1-benzyl-1H-indazol-5-ylmethoxy)-phenyl]-3-cyano-propanoic acid] | 20 |
| CC#C[C@@H](CC(=O)O)c1ccc(OCc2ccc3c(cnn3CC3CCCC3)c2)cc1 [Example 163, (S)-3-[4-(1-cyclopentylmethyl-1H-indazol-5-ylmethoxy)-phenyl]-hex-4-ynoic acid] | 1 to 50 |
| CC#C[C@@H](CC(=O)O)c1ccc(OCc2ccc3c(cnn3C3CCCC3)c2)cc1 [Example 164, (S)-3-[4-(1-cyclopentyl-1H-indazol-5-ylmethoxy)-phenyl]-hex-4-ynoic acid] | 1 to 50 |
| CC#C[C@@H](CC(=O)O)c1ccc(OCc2ccc3c(cnn3CC3CC3)c2)cc1 [Example 165, (S)-3-[4-(1-cyclopropylmethyl-1H-indazol-5-ylmethoxy)-phenyl]-hex-4-ynoic acid] | 1 to 50 |
| CC#C[C@@H](CC(=O)O)c1ccc(OCc2ccc3nnn(CC(C)C)c3c2)cc1 [Example 166, (S)-3-[4-(3-isobutyl-3H-benzotriazol-5-ylmethoxy)-phenyl]-hex-4-ynoic acid] | 50 to 500 |
| O=C(O)C1CC1c1ccc(OCc2ccc3cnn(Cc4ccccc4)c3c2)cc1 (stereo not shown) [Example 167, 2-[4-(1-benzyl-1H-indazol-6-ylmethoxy)-phenyl]-cyclopropane carboxylic acid] | 60 |
| CC#C[C@@H](CC(=O)O)c1ccc(OCc2cc(C)c3c(cnn3C(C)C)c2)cc1 [Example 168, (S)-3-[4-(1-isopropyl-7-methyl-1H-indazol-5-ylmethoxy)-phenyl]-hex-4-ynoic acid] | 1 to 50 |
| CC#C[C@@H](CC(=O)O)c1ccc(OCc2cc(C)c3c(cnn3CC3CCCC3)c2)cc1 [Example 169, (S)-3-[4-(1-cyclopentylmethyl-7-methyl-1H-indazol-5-ylmethoxy)-phenyl]-hex-4-ynoic acid] | 1 to 50 |

Second part, the compound after the results:

| EC50 [nM] | Structure (SMILES) |
| --- | --- |
| 1 to 50 | CC#C[C@@H](CC(=O)O)c1ccc(OCc2ccc3c(c2)c(C)nn3CC(C)C)cc1 [Example 170, (S)-3-[4-(1-isobutyl-3-methyl-1H-indazol-5-ylmethoxy)-phenyl]-hex-4-ynoic acid] |
| 1 to 50 | CC#C[C@@H](CC(=O)O)c1ccc(OCc2cc(C)c3c(cnn3C3CCCC3)c2)cc1 [Example 171, (S)-3-[4-(1-cyclopentyl-7-methyl-1H-indazol-5-ylmethoxy)-phenyl]-hex-4-ynoic acid] |
| 1 to 50 | CC#C[C@@H](CC(=O)O)c1ccc(OCc2ccc3cnn(C4CCCC4)c3c2)cc1 [Example 172, (S)-3-[4-(1-cyclopentyl-1H-indazol-6-ylmethoxy)-phenyl]-hex-4-ynoic acid] |
| 1 to 50 | CC#C[C@@H](CC(=O)O)c1ccc(OCc2ccc3cnn(CC4CCCC4)c3c2)cc1 [Example 173, (S)-3-[4-(1-cyclopentylmethyl-1H-indazol-6-ylmethoxy)-phenyl]-hex-4-ynoic acid] |
| ≥ 500 | CC#C[C@@H](CC(=O)O)c1ccc(OCc2ccc3c(cnn3CCS(C)(=O)=O)c2)cc1 [Example 174, (S)-3-{4-[1-(2-methanesulfonyl-ethyl)-1H-indazol-5-ylmethoxy]-phenyl}-hex-4-ynoic acid] |
| 50 to 500 | CC#C[C@@H](CC(=O)O)c1ccc(OCc2ccc3c(cnn3CCOC)c2)cc1 [Example 175, (S)-3-{4-[1-(2-methoxy-ethyl)-1H-indazol-5-ylmethoxy]-phenyl}-hex-4-ynoic acid] |
| 40 | CC#C[C@@H](CC(=O)O)c1ccc(OCc2ccc3c(cnn3CCCOC)c2)cc1 [Example 176, (S)-3-{4-[1-(3-methoxy-propyl)-1H-indazol-5-ylmethoxy]-phenyl}-hex-4-ynoic acid] |
| 1 to 50 | CC#C[C@@H](CC(=O)O)c1ccc(OCc2ccc3cnn(CC4(C)COC4)c3c2)cc1 [Example 177, (S)-3-{4-[1-(3-methyl-oxetan-3-ylmethyl)-1H-indazol-6-ylmethoxy]-phenyl}-hex-4-ynoic acid] |
| 1 to 50 | CC#C[C@@H](CC(=O)O)c1ccc(OCc2ccc3c(C)nn(CC(C)C)c3c2)cc1 [Example 178, (S)-3-[4-(1-isobutyl-3-methyl-1H-indazol-6-ylmethoxy)-phenyl]-hex-4-ynoic acid] |
| 1 to 50 | CC#C[C@@H](CC(=O)O)c1ccc(OCc2ccc3c(C)n(CC(C)C)nc3c2)cc1 [Example 179, (S)-3-[4-(2-isobutyl-3-methyl-2H-indazol-6-ylmethoxy)-phenyl]-hex-4-ynoic acid] |
| 1 to 50 | CC#C[C@@H](CC(=O)O)c1ccc(OCc2ccc3cnn(C(C)C)c3c2)cc1 [Example 180, (S)-3-[4-(1-isopropyl-1H-indazol-6-ylmethoxy)-phenyl]-hex-4-ynoic acid] |
| 6 | CC#C[C@@H](CC(=O)O)c1ccc(OCc2ccc3onc(CC(C)C)c3c2)cc1 [Example 181, (S)-3-[4-(3-isobutyl-benzo[d]isoxazol-5-ylmethoxy)-phenyl]-hex-4-ynoic acid] |
| 1 to 50 | CC#C[C@@H](CC(=O)O)c1ccc(OCc2ccc3cnn(CC(C)(C)C)c3c2)cc1 [Example 182, (S)-3-{4-[1-(2,2-dimethyl-propyl)-1H-indazol-6-ylmethoxy]-phenyl}-hex-4-ynoic acid] |
| 1 to 50 | CC#C[C@@H](CC(=O)O)c1ccc(OCc2cc3cnn(CC(C)C)c3cc2C)cc1 [Example 183, (S)-3-[4-(1-isobutyl-6-methyl-1H-indazol-5-ylmethoxy)-phenyl]-hex-4-ynoic acid] |
| 1 to 50 | CC#C[C@@H](CC(=O)O)c1ccc(OCc2cccc3c2cnn3CC(C)C)cc1 [Example 184, (S)-3-[4-(1-isobutyl-1H-indazol-4-ylmethoxy)-phenyl]-hex-4-ynoic acid] |
| 1 to 50 | CC#C[C@@H](CC(=O)O)c1ccc(OCc2ccc3c(C)nn(C(C)C)c3c2)cc1 [Example 185, (S)-3-[4-(1-isopropyl-3-methyl-1H-indazol-6-ylmethoxy)-phenyl]-hex-4-ynoic acid] |
| 1 to 50 | CC#C[C@@H](CC(=O)O)c1ccc(OCc2ccc3c(c2)c(CC(C)C)nn3C)cc1 [Example 186, (S)-3-[4-(3-isobutyl-1-methyl-1H-indazol-5-ylmethoxy)-phenyl]-hex-4-ynoic acid] |
| 1 to 50 | CC#C[C@@H](CC(=O)O)c1ccc(OCc2ccc3c(c2)c(C)nn3C(C)C)cc1 [Example 187, (S)-3-[4-(1-isopropyl-3-methyl-1H-indazol-5-ylmethoxy)-phenyl]-hex-4-ynoic acid] |
